Here are results for eight molecules from US5876948A (priority 1991, dated 1999).

Peptide text beside a SMILES is read from it.

The test system of data set [1] is hippocampal neurons. It is filed as cell-based, rat.
Data set [2] has as its system hippocampal neurons. It is filed as cell-based, rat. This is another data set of the same source.
For data set [3], the system named is hippocampal neurons. It is filed as cell-based, rat. This is another data set of the same source.
For data set [4], the system named is hippocampal neurons. It is filed as cell-based, rat. This is another data set of the same source.
For data set [5] the following is noted: in vivo; cited from earlier work.
Data set [6] deals with primary hippocampal neurons. The experiment in a line: Block of β1-40 neuronal toxicity by Substance P and analogs (therapeutic efficacy). The class given is cell-based, rat.

On to `CC[C@H](C)[C@H](NC(=O)[C@H](Cc1ccccc1)NC(=O)[C@H](C)NC(=O)[C@H](CC(=O)O)NC(=O)[C@H](CCCCN)NC(=O)[C@H](CO)NC(=O)[C@@H]1CCCN1C(=O)[C@@H]1CCC(=O)N1)C(=O)NCC(=O)N[C@@H](CC(C)C)C(=O)N[C@@H](CCSC)C(N)=O` [Eledoisin] (HELM PEPTIDE1{[Glp].P.S.K.D.A.F.I.G.L.M.[am]}$$$$V2.0), for which the “reversal of late toxic response to β1-40” value in the data set on hippocampal neurons [1] is given as “did not show significant effects”. In addition, in the data set with hippocampal neurons [2], the “% Trophic Response” value came out at 0 ± 11 and the “neurotrophic activity / early neuronal survival (in words)” value is “no effect on early or late neuronal survival”. The “reversal of early trophic response to β1-40” value in the data set on hippocampal neurons [3] was “did not show significant effects”. In addition, in the data set on hippocampal neurons [4], the “% Toxic Response” value came to 0 ± 6 and the “neurotoxic activity / late neuronal survival (in words)” value is reported as “no effect on early or late neuronal survival”.

Turning to `CSCC[C@H](NC(=O)[C@H](CC(C)C)NC(=O)CNC(=O)[C@H](Cc1ccc(O)cc1)NC(=O)[C@H](Cc1ccccc1)NC(=O)[C@H](CCCCN)NC(=O)[C@H](CC(N)=O)NC(=O)[C@@H]1CCCN1C(=O)[C@H](CC(=O)O)NC(=O)[C@H](C)NC(=O)[C@@H]1CCC(=O)N1)C(N)=O` [Physalaemin] (HELM PEPTIDE1{[Glp].A.D.P.N.K.F.Y.G.L.M.[am]}$$$$V2.0), in the data set with hippocampal neurons [1], the “reversal of late toxic response to β1-40” value was “almost completely reversed”. In the data set with hippocampal neurons [2], the “% Trophic Response” value worked out at 0 ± 4% and the “neurotrophic activity / early neuronal survival (in words)” value was “no effect on early or late neuronal survival”. Further, the “reversal of early trophic response to β1-40” value with hippocampal neurons [3] is “almost completely reversed”. Also, in the data set on hippocampal neurons [4], the “% Toxic Response” value is on record as 0 ± 7% and the “neurotoxic activity / late neuronal survival (in words)” value is reported as “no effect on early or late neuronal survival”.

In the case of `CSCC[C@H](NC(=O)[C@H](CC(C)C)NC(=O)CNC(=O)[C@H](Cc1ccccc1)NC(=O)[C@H](Cc1ccccc1)NC(=O)[C@H](CCC(N)=O)NC(=O)[C@H](CCC(N)=O)NC(=O)[C@@H]1CCCN1C(=O)[C@H](CCCCN)NC(=O)[C@@H]1CCCN1C(=O)[C@@H](N)CCCN=C(N)N)C(N)=O` [Substance P], the “crossing of the blood-brain barrier” value in data set [5] is reported as “known to cross the blood-brain barrier”.

With `CSCC[C@H](NC(=O)[C@H](CC(C)C)NC(=O)CNC(=O)[C@H](Cc1ccccc1)N(C)C(=O)[C@H](Cc1ccccc1)NC(=O)[C@H](CC(=O)O)NC(=O)CCC(=O)O)C(N)=O` [[Succinyl-Asp^6, Me-Phe^8]-Sub P (6-11)] (HELM PEPTIDE1{[O=C(O)CCC(=O)[*:2]].D.F.[meF].G.L.M.[am]}$$$$V2.0), the “Therapeutic Efficacy (%): ability to block neuronal toxicity of β1-40” value (“Therapeutic Efficacy (%): ability” below) in data set [6] was 47%.

`CSCC[C@H](NC(=O)[C@H](CC(C)C)NC(=O)CNC(=O)[C@@H](NC(=O)[C@H](Cc1ccccc1)NC(=O)[C@H](CCC(N)=O)NC(=O)[C@H](CC(=O)O)NC(=O)[C@H](CO)NC(=O)[C@H](CCCCN)NC(=O)[C@@H]1CCCN1C(=O)[C@@H](NC(=O)[C@@H](N)CC(=O)O)C(C)C)C(C)C)C(N)=O` [kassinin] (H-DVPKSDQFVGLM-NH2): the “reversal of late toxic response to β1-40” value in the data set with hippocampal neurons [1] is given as “did not show significant effects”. Further, in the data set on hippocampal neurons [3], the “reversal of early trophic response to β1-40” value was “did not show significant effects”.

Turning to `CC(C)C[C@H](NC(=O)[C@H](CC(C)C)NC(=O)[C@@H](Cc1c[nH]c2ccccc12)NC(=O)[C@H](Cc1ccccc1)NC(=O)[C@@H](Cc1c[nH]c2ccccc12)NC(=O)[C@H](CCC(N)=O)NC(=O)[C@H](CCC(N)=O)NC(=O)[C@@H]1CCCN1C(=O)[C@H](CCCCN)NC(=O)[C@@H]1CCCN1C(=O)[C@H](N)CCCNC(=N)N)C(N)=O` [spantide, [D-Arg^1, D-Trp^7,9, Leu^11]-substance P] (HELM PEPTIDE1{[dR].P.K.P.Q.Q.[dW].F.[dW].L.L.[am]}$$$$V2.0), in the data set on hippocampal neurons [2], the “% Trophic Response” value is 120 ± 8%; the “neurotrophic activity / early neuronal survival (in words)” value is “significant early neurotrophic and late neurotoxic effects”. In the data set on hippocampal neurons [4], the “% Toxic Response” value came out at 118 ± 10%; the “neurotoxic activity / late neuronal survival (in words)” value was “significant early neurotrophic and late neurotoxic effects”.

With Sub P, Free Acid, the “Therapeutic Efficacy (%): ability” value in data set [6] is given as 53%.

Regarding Sub P, Methyl Ester, the “Therapeutic Efficacy (%): ability” value in data set [6] is 71%.
